# Assay results reported in ChEMBL document CHEMBL5375988, “AcGlcAs: A Novel P53-Targeting Arsenical with Potent Cellular Uptake and Cancer Cell Selectivity” (J Med Chem, 2023).
# Calls of active or inactive are those of the source. The rule behind the calls is not given here.
# Experiments:
# [1] = test system: U-937; assay: Induction of senescence in human U-937 cells harboring p53-V272M mutant assessed as increase in SA-beta-gal positive cells at 0.5 to 8 uM pretreated for 1 hr followed by culturing in fresh medium for 8 hrs by […] microscopic analysis; format: functional, cell-based; conditions: dose 0.5-8 µM
# [2] = test system: NB-4; assay: Induction of granulocytic differentiation in human NB4 cells assessed as increase in CD11b expression at 3 uM incubated for 1 hrs followed by replacement with fresh culture medium for 48 hrs by flow cytometry analysis (reference value: 1.44%); format: functional
# [3] = test system: NCI-H1299; assay: Upregulation of p21 protein expression in human NCI-H1299 cells overexpressing p53-V272M mutant pretreated for 1 hr followed by culturing in fresh medium for 16 hrs by Western blot analysis; format: functional, cell-based
# [4] = test system: NCI-H1299; assay: Upregulation of MDM2 protein expression in human NCI-H1299 cells overexpressing p53-V272M mutant pretreated for 1 hr followed by culturing in fresh medium for 16 hrs by Western blot analysis; format: functional, cell-based
# [5] = test system: NB-4; assay: Induction of granulocytic differentiation in human NB4 cells assessed as increase in CD11b expression at 9 uM incubated for 1 hrs followed by replacement with fresh culture medium for 48 hrs by flow cytometry analysis (reference value: 1.44%); format: functional
# [6] = Plasma stability in dog assessed as half life at […] measured upto 120 mins by LC-MS analysis; format: ADME, cell-free, Canis lupus familiaris
# [7] = test system: Cellular tumor antigen p53 (Homo sapiens), P04637 [V272M]; assay: Rescue of p53-V272M mutant transcriptional activity on PUMA promoter in human NCI-H1299 cells at 0.3 to 10 uM pretreated for 10 mins to1 hr followed by replacement with fresh culture media and measured after 24 hrs by firefly/renilla based luciferase reporter assay; format: cell-based; conditions: filed as activator, dose 0.3-10 µM, time 10-60 min
# [8] = test system: Cellular tumor antigen p53 (Homo sapiens), P04637 [V272M]; assay: Restoration of p53-V272M mutant transcriptional activity on PUMA promoter in human NCI-H1299 cells harboring siRNA-mediated CKAP4 knockdown incubated for 24 hrs by firefly/renilla based luciferase reporter assay; format: cell-based
# [9] = test system: Cellular tumor antigen p53 (Homo sapiens), P04637 [V272M]; assay: Restoration of p53-V272M mutant transcriptional activity on PUMA promoter in human NCI-H1299 cells at 10 uM pretreated with 20 to 40 uM N-ethylmaleimide for 30 mins followed by compound addition for 10 mins and further incubation in fresh medium for 24 hrs by firefly/renilla based luciferase reporter assay; format: cell-based
# [10] = test system: U-937; assay: Antitumor activity against GFP-tagged human U-937 cells harboring p53 V272M mutant xenografted in M-NSG mouse assessed as decrease in leukemia cell population in bone marrow at 25 mg/kg, ip administered for 9 days starting from 7 days post inoculation and measured on day 2,6,and 9 by FACS analysis; format: functional, organism-based; conditions: time 9.0 day
# [11] = biological target: T1, PML-RARalpha (Homo sapiens) (UniProt P10276+P29590); assay: Induction of PML/RARalpha degradation in HEK293T cells at 3 uM incubated for 1 hrs followed by replacement with fresh culture medium and measured after 16 hrs by immunofluorescence analysis; format: cell-based
# T1 sequence (P10276 whole entry, looked up): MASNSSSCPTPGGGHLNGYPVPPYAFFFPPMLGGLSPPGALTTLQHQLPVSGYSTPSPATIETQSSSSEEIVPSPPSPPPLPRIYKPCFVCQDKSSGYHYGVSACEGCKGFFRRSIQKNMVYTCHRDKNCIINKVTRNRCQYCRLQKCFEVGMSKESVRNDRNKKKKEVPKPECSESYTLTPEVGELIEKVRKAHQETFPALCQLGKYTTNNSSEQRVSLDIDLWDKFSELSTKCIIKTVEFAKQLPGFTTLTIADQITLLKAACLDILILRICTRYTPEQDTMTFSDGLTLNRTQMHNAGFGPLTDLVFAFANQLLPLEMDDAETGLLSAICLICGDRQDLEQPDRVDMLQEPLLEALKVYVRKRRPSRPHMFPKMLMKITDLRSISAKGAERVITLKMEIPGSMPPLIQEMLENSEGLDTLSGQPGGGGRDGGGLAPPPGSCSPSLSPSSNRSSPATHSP
# T1 sequence (P29590 whole entry, looked up): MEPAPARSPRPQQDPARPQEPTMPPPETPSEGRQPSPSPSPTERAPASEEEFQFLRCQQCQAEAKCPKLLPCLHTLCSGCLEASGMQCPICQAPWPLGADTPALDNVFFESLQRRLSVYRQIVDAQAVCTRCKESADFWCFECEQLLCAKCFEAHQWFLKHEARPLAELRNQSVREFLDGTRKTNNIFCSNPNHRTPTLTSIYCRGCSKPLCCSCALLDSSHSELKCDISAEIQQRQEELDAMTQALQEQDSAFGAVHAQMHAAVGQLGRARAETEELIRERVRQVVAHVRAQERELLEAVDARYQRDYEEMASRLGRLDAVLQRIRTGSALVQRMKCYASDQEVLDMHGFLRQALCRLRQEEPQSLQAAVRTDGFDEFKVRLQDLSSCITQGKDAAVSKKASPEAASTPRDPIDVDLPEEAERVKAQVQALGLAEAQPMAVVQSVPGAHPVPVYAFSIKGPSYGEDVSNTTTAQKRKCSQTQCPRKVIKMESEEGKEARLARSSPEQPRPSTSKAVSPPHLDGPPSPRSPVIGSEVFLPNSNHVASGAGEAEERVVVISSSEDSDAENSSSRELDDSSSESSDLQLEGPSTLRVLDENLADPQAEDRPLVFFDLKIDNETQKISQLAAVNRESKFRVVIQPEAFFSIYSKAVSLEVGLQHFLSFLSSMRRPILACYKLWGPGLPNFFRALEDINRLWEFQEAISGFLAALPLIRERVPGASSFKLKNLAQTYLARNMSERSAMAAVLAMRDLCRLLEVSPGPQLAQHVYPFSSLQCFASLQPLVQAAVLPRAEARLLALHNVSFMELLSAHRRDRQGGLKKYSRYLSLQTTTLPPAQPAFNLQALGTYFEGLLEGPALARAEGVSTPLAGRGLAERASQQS
# [12] = test system: U-937; assay: Induction of cell cycle arrest in human U-937 cells overexpressing p53-V272M mutant assessed as upregulation of BTG2 gene expression by RT-qPCR analysis; format: functional, cell-based
# [13] = test system: U-937; assay: Antitumor activity against GFP-tagged human U-937 cells harboring p53 V272M mutant xenografted in M-NSG mouse assessed as appearance of smaller and lighter spleen at 25 mg/kg, ip administered for 9 days starting from 7 days post inoculation and measured on day 2 and 6; format: functional, organism-based; conditions: time 9.0 day
# [14] = biological target: T1, PML-RARalpha (Homo sapiens); assay: Induction of PML/RARalpha degradation in human NB4 cells assessed as residual protein level at 1 uM incubated for 1 hrs followed by replacement with fresh culture medium and measured after 16 hrs by Western blot analysis (reference value: 1); format: cell-based
# [15] = test system: NB-4; assay: Induction of apoptosis in human NB4 cells assessed as necrotic cells at 3 uM preincubated for 1 hrs followed by replacement with fresh culture medium and measured after 24 hrs by Annexin V-FITC/7AAD staining based flow cytometry assay (reference value: 0.16%); format: functional
# [16] = Drug uptake in human HPDE6c7 cells at 10 uM measured after 10 mins by ICP-MS analysis; format: ADME, cell-based; conditions: hpde6c7, 10 min
# [17] = test system: NB-4; assay: Induction of apoptosis in human NB4 cells assessed as necrotic cells at 9 uM preincubated for 1 hrs followed by replacement with fresh culture medium and measured after 24 hrs by Annexin V-FITC/7AAD staining based flow cytometry assay (reference value: 0.16%); format: functional
# [18] = test system: NB-4; assay: Induction of apoptosis in human NB4 cells assessed as early apoptotic cells at 9 uM preincubated for 1 hrs followed by replacement with fresh culture medium and measured after 24 hrs by Annexin V-FITC/7AAD staining based flow cytometry assay (reference value: 2.15%); format: functional
# [19] = Plasma stability in human assessed as half life at […] measured upto 120 mins by LC-MS analysis; format: ADME, cell-free
# [20] = biological target: T1, PML-RARalpha (Homo sapiens); assay: Induction of PML/RARalpha degradation in human NB4 cells assessed as residual protein level at 0.1 uM incubated for 1 hrs followed by replacement with fresh culture medium and measured after 16 hrs by Western blot analysis (reference value: 1); format: cell-based
# [21] = test system: U-937; assay: Cytotoxicity against p53 null human U-937 cells harboring empty vector incubated for 48 hrs by CCK-8 assay; format: functional, cell-based; conditions: U-937, 48 h
# [22] = test system: U-937; assay: Induction of intrinsic apoptosis in human U-937 cells overexpressing p53-V272M mutant assessed as upregulation of PUMA gene expression by RT-qPCR analysis; format: functional, cell-based
# [23] = biological target: T1, PML-RARalpha (Homo sapiens); assay: Induction of PML/RARalpha degradation in human NB4 cells assessed as residual protein level at 3 uM incubated for 1 hrs followed by replacement with fresh culture medium and measured after 16 hrs by Western blot analysis (reference value: 1); format: cell-based
# [24] = biological target: T1, PML-RARalpha (Homo sapiens); assay: Induction of PML/RARalpha degradation in human NB4 cells assessed as downregulation of DLK1 mRNA expression incubated for 1 hrs followed by replacement with fresh culture medium for 6 hrs by RT-qPCR analysis; format: cell-based; conditions: dose 0.3-3 µM
# [25] = Drug accumulation in ICR mouse kidney at 10 mg/kg, iv measured upto 24 hrs by ICP-MS analysis; format: ADME, organism-based; conditions: in vivo
# [26] = test system: Cellular tumor antigen p53 (Homo sapiens), P04637 [V272M]; assay: Restoration of p53-V272M mutant transcriptional activity on PUMA promoter in human NCI-H1299 cells harboring siRNA-mediated CLIC1 knockdown incubated for 24 hrs by firefly/renilla based luciferase reporter assay; format: cell-based
# [27] = test system: NB-4; assay: Induction of apoptosis in human NB4 cells assessed as necrotic cells at 27 uM preincubated for 1 hrs followed by replacement with fresh culture medium and measured after 24 hrs by Annexin V-FITC/7AAD staining based flow cytometry assay (reference value: 0.18%); format: functional
# [28] = test system: NB-4; assay: Induction of apoptosis in human NB4 cells assessed as viable cells at 9 uM preincubated for 1 hrs followed by replacement with fresh culture medium and measured after 24 hrs by Annexin V-FITC/7AAD staining based flow cytometry assay (reference value: 94%); format: functional; conditions: read-out: Activity
# [29] = test system: HL-60; assay: Upregulation of MDM2 protein expression in human HL-60 cells overexpressing p53-V272M mutant pretreated for 1 hr followed by culturing in fresh medium for 16 hrs by Western blot analysis; format: functional, cell-based
# [30] = biological target: T1, PML-RARalpha (Homo sapiens); assay: Induction of PML/RARalpha degradation in human NB4 cells assessed as downregulation of MPO mRNA expression incubated for 1 hrs followed by replacement with fresh culture medium for 6 hrs by RT-qPCR analysis; format: cell-based; conditions: dose 0.3-3 µM
smiles,measurement,setting,value
CC(=O)OC[C@H]1O[C@@H](S[As]2SCCS2)[C@H](OC(C)=O)[C@@H](OC(C)=O)[C@@H]1OC(C)=O,Activity,[1],inactive
same,Activity,[2],32.9%
same,Activity,[3],Active
same,Activity,[4],Active
same,Activity,[5],19%
same,half-life,[6],3.06 min
same,Activity,[7],Active
same,Activity,[8],inactive
same,Activity,[9],inactive
same,Activity,[10],Active
same,Activity,[11],Active
same,Activity,[12],Active
same,Activity,[13],Active
same,Activity,[14],0.26
same,Activity,[15],0.27%
same,Drug uptake,[16],Active
same,Activity,[17],0.26%
same,Activity,[18],7.43%
same,half-life,[19],16.1 min
same,Activity,[20],0.55
same,IC50,[21],2.1 µM
same,Activity,[22],Active
same,Activity,[23],0.18
same,Activity,[24],Dose-Dependent Effect
same,Drug uptake,[25],Active
same,Activity,[26],inactive
same,Activity,[27],1.3%
same,viability at 9 µM,[28],85.6%
same,Activity,[29],Active
same,Activity,[30],Dose-Dependent Effect
